The record followed here is PubChem BioAssay (NCI).

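A five-concentration, 48-hour dose response in 96-well plates underlies each endpoint, interpolated linearly between surrounding concentrations. At the GI50, growth is halved. TGI denotes the concentration required for complete inhibition of growth.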 Where only a bound is given, the exact number is not on record here.

Some test systems named below: MDA-MB-231 breast; NCI-H522 lung; OVCAR-4 ovarian; CAKI-1 renal; HCT-116 colon; K-562 leukemia; IGROV1 ovarian; A549 NSCLC.
Assay in all cases: NCI tumour cell line growth inhibition, 48 h

As to `COc1ccc(C(=O)c2cc3c(N)c(C(=O)Nc4cccc(Cl)c4)sc3nc2C)cc1`, the GI50 in the assay on MDA-MB-231 breast was 2.55 µM; in the assay on NCI-H522 lung, 1.1 µM; in the assay on OVCAR-4 ovarian it was 9.48 µM; in the assay with CAKI-1 renal, 1.28 µM; in the assay on HCT-116 colon, 1.45 µM; with K-562 leukemia, 1.36 µM. In addition, the GI50 is 1.76 µM in the assay on IGROV1 ovarian and 1.67 µM in the assay with A549 NSCLC. The TGI in the assay with MDA-MB-231 breast, in the assay with NCI-H522 lung, in the assay on OVCAR-4 ovarian, in the assay on CAKI-1 renal, with HCT-116 colon and in the assay with K-562 leukemia was more than 33.3 µM in each case. The TGI with IGROV1 ovarian and in the assay on A549 NSCLC was more than 33.3 µM each time.
As to `COc1c2occc2c(OC)c2c(=O)c(S(=O)(=O)NC(=O)Nc3ccc(Cl)cc3)coc12`, the TGI in the assay on MDA-MB-231 breast, with NCI-H522 lung, with OVCAR-4 ovarian, in the assay with CAKI-1 renal, in the assay with HCT-116 colon and in the assay on K-562 leukemia was more than 10 µM throughout. Also, the TGI in the assay with IGROV1 ovarian and with A549 NSCLC was more than 10 µM each time.
Regarding `C=C1C(=O)O[C@@H]2[C@@H]3O[C@@](C)(CC/C=C(\C)CCC[C@@H]2C)[C@H](O)C[C@@H]13`, the GI50 is 2.39 µM with MDA-MB-231 breast; 2.11 µM in the assay on NCI-H522 lung; 2.63 µM in the assay on OVCAR-4 ovarian; 1.73 µM in the assay on CAKI-1 renal; 1.49 µM in the assay on HCT-116 colon; 3.1 µM with K-562 leukemia. Besides, the GI50 in the assay with IGROV1 ovarian is 2.06 µM; in the assay on A549 NSCLC it was 3.73 µM. Also, the TGI with MDA-MB-231 breast is 7.18 µM; in the assay with NCI-H522 lung it was 4.5 µM; with OVCAR-4 ovarian it was 11.7 µM; in the assay with CAKI-1 renal it was 4.5 µM; with HCT-116 colon, 2.87 µM; in the assay on K-562 leukemia, 9.58 µM. The TGI was 5.78 µM in the assay with IGROV1 ovarian and 14.7 µM with A549 NSCLC.
Take `COc1cc(-c2cc(-c3ccc(N(C)C)cc3)nc(N3CCC(O)CC3)c2C#N)cc(OC)c1OC`: the GI50 in the assay on MDA-MB-231 breast is 0.392 µM; in the assay on NCI-H522 lung, 0.338 µM; in the assay on OVCAR-4 ovarian, 1.21 µM; with CAKI-1 renal, 0.0224 µM; in the assay with HCT-116 colon, 0.287 µM; with K-562 leukemia it was 0.367 µM. Further, the GI50 is 0.555 µM in the assay with IGROV1 ovarian and 0.378 µM in the assay with A549 NSCLC. Further, the TGI with MDA-MB-231 breast is 3.55 µM; with NCI-H522 lung, 1.32 µM; in the assay on OVCAR-4 ovarian, more than 100 µM; in the assay with CAKI-1 renal, 0.7 µM; with HCT-116 colon, 1.65 µM; with K-562 leukemia, 10.5 µM. Moreover, the TGI with IGROV1 ovarian was 38.4 µM.
`CCCCc1ccc2nc(NC(=O)OC)[nH]c2c1`: the GI50 was 0.291 µM with MDA-MB-231 breast; 0.0612 µM in the assay on NCI-H522 lung; 1.7 µM in the assay with OVCAR-4 ovarian; 0.0314 µM with CAKI-1 renal; 0.0482 µM in the assay on HCT-116 colon; 0.0337 µM in the assay on K-562 leukemia. The figures for the GI50 in the assay on IGROV1 ovarian and with A549 NSCLC were 0.101 µM and 0.0868 µM, respectively. Further, the TGI in the assay on MDA-MB-231 breast is more than 74.7 µM; in the assay on NCI-H522 lung it was more than 68.3 µM; in the assay with OVCAR-4 ovarian, more than 69.2 µM; with CAKI-1 renal, 12.9 µM; in the assay with HCT-116 colon, 13.5 µM; with K-562 leukemia, more than 100 µM. Moreover, the TGI is more than 78.7 µM with IGROV1 ovarian and more than 100 µM in the assay on A549 NSCLC.
For the molecule `Cc1ncc(C(=O)Nc2ccc(CN3CCN(C)CC3)c(C(F)(F)F)c2)cc1C#Cc1c(N)ncc2ccc(C#N)cc12`, the GI50 with MDA-MB-231 breast was 0.161 µM; in the assay on NCI-H522 lung it was 1.61 µM; in the assay on OVCAR-4 ovarian it was 0.975 µM; in the assay on CAKI-1 renal, 0.89 µM; with HCT-116 colon, 0.24 µM; in the assay with K-562 leukemia, 0.005 µM. Further, the GI50 with IGROV1 ovarian was 0.111 µM; with A549 NSCLC, 2.82 µM. Besides, the TGI in the assay with MDA-MB-231 breast stood at 1.89 µM; in the assay with NCI-H522 lung, 21.7 µM; in the assay on OVCAR-4 ovarian, 11 µM; in the assay on CAKI-1 renal, 7.22 µM; in the assay on HCT-116 colon it was 5.94 µM; in the assay on K-562 leukemia it was 5.3 µM. Also, the results for the TGI in the assay on IGROV1 ovarian and in the assay with A549 NSCLC were 4 µM and 14.4 µM, respectively.
For `Cc1cc(Cl)n2c(nc3ccccc32)c1C#N`, the GI50 in the assay on MDA-MB-231 breast is 0.649 µM; in the assay with NCI-H522 lung, 0.235 µM; in the assay on OVCAR-4 ovarian it was 0.971 µM; with CAKI-1 renal, 0.282 µM; in the assay with HCT-116 colon, 0.0393 µM; in the assay on K-562 leukemia it was 0.256 µM. Moreover, the GI50 in the assay on IGROV1 ovarian is 0.414 µM; with A549 NSCLC it was 0.385 µM. Also, the TGI was found to be 4.58 µM in the assay on MDA-MB-231 breast; 1.22 µM with NCI-H522 lung; 3.43 µM in the assay with OVCAR-4 ovarian; 1.41 µM in the assay with CAKI-1 renal; 1.4 µM with HCT-116 colon; 61.3 µM in the assay on K-562 leukemia. The TGI was 1.82 µM in the assay with IGROV1 ovarian and 7.43 µM in the assay on A549 NSCLC.
With `CC(C)(O)Cn1c(=O)c(Oc2ccc(F)cc2F)cc2cnc(NC3CCOCC3)nc21`, the GI50 in the assay with MDA-MB-231 breast, in the assay with NCI-H522 lung, with OVCAR-4 ovarian, in the assay on CAKI-1 renal, in the assay with HCT-116 colon and in the assay with K-562 leukemia was more than 25 µM in each case. In addition, the GI50 in the assay on IGROV1 ovarian and with A549 NSCLC was more than 25 µM throughout. Further, the TGI in the assay with MDA-MB-231 breast, in the assay with NCI-H522 lung, in the assay with OVCAR-4 ovarian, in the assay on CAKI-1 renal, in the assay with HCT-116 colon and in the assay with K-562 leukemia was more than 25 µM throughout. Moreover, the TGI in the assay on IGROV1 ovarian and in the assay on A549 NSCLC was more than 25 µM each time.
As for `O=P(O)(O)OC1C(OP(=O)(O)O)C(OP(=O)(O)O)C(OP(=O)(O)O)C(OP(=O)(O)O)C1OP(=O)(O)O` (stereo not given), the GI50 is more than 2000 µM in the assay with MDA-MB-231 breast; more than 2000 µM with NCI-H522 lung; more than 100 µM with OVCAR-4 ovarian; more than 1560 µM with CAKI-1 renal; more than 2000 µM in the assay with HCT-116 colon; more than 2000 µM with K-562 leukemia. For the same molecule, the GI50 in the assay with IGROV1 ovarian and with A549 NSCLC was more than 2000 µM each time. The TGI with MDA-MB-231 breast, in the assay on NCI-H522 lung, with OVCAR-4 ovarian, in the assay on CAKI-1 renal, with HCT-116 colon and with K-562 leukemia was more than 2000 µM each time. For the same molecule, the TGI in the assay with IGROV1 ovarian and in the assay on A549 NSCLC was more than 2000 µM each time.
